In brackets after ≈: the same amount, converted by molar mass.
Experiment: solubility of suspension in buffer
Type: physicochemical
Conditions: aqueous buffer; in the buffer at 37° C. when implanted

For `CC1(C)O[C@@H]2C[C@H]3[C@@H]4CCC5=CC(=O)C=C[C@]5(C)[C@@]4(F)[C@@H](O)C[C@]3(C)[C@]2(C(=O)CO)O1` [triamcinolone acetonide], the solubility was roughly 19 µg/mL (≈ 43.7 µM).
